Entries after “also recorded” stand apart in the source; their conditions may differ.
Tests used:
[1] = test system: hairless mice flank skin; experiment: Permeability barrier recovery (TEWL) after tape stripping; type: in vivo, mouse; conditions: for permeability barrier recovery after tape stripping (percent recovery of TEWL): single topical application after tape stripping, each reagent 1 mM (FIG. 1 legend), 1, 3 and 6 hours, vs water control
Protocol: All experiments were performed on 7-10-week old male hairless mice (HR-1, Hoshino, Japan). All procedures for measuring of skin barrier function, disrupting the barrier and applying the sample were carried out under anesthesia. All experiments were approved by the Animal Research Committee of the Shiseido Research Center in accordance with the National Research Council Guide. 1-EBIO, diazoxide, gilbenclamide, minoxidil, dequalinium were purchased from Tocris (TOCRIS, Bristol, UK). Valinomycin was purchased from Wako (Wako Osaka, Japan).
(§1) Permeability barrier function was evaluated by measurement of transepidermal water loss (TEWL) with an electric water analyzer, as described previously (Denda, M., Sato J., Masuda Y., Kuramoto M., Elias P. M., Feingold K. R. (1998). J Invest Dermatol 111(5): 858-63). For barrier recovery experiments, both sides of flank skin were treated with repeated tape stripping until the TEWL reached 7-10 mg per cm^2 per h. […] The areas were covered with plastic membranes for 15 min (both treated and control sites) and then the membranes were removed. Previous studies have shown that occlusion for a longer period of time delays barrier repair. […] Two points on one side of a flank were measured and 4-8 mice were used to evaluate the effects of each treatment. We always disrupted the barrier between 7:00AM to 8:00AM to avoid variations in repair rate due to the influence of circadian rhythm. TEWL was then measured over the same sites at 1, 3 and 6 hours after barrier disruption. The barrier recovery results are expressed as percent of recovery, because of variations from day to day in the extent of barrier disruption. In each animal, the percentage of recovery was calculated by the following formula: (TEWL immediately after barrier disruption−TEWL at indicated time point)/(TEWL immediately after barrier disruption−baseline TEWL)×100%). All experiments were performed on 7 to 10-week-old male hairless mice (HR-1, Hoshino, Japan). All procedures including measurement of skin barrier function, disruption of the barrier, and application of test samples were carried out under anesthesia.

[2] = test system: hairless mouse flanks; experiment: Permeability barrier recovery (TEWL) after acetone treatment; type: in vivo; conditions: topical potassium ionophore; FIG. 2B; n=4
Protocol: as §1, with “[…] Immediately after” for “For”, “disruption 100 μl” for “recovery experiments, both sides”, “an aqueous solution containing 1 μM of reagent or water alone (control) was applied to the” for “flank skin were”, “area.” for “with repeated tape stripping until the TEWL reached 7-10 mg per cm^2 per h.”, “All experiments were performed on 7 to 10-week-old male hairless mice (HR-1, Hoshino, Japan). All procedures including measurement of skin barrier function, disruption of the barrier, and application of test samples were carried out under anesthesia.” left out

[3] = test system: differentiated cultured human keratinocytes (CHK); experiment: Evaluation of intracellular potassium levels (PBFI-AM fluorescence); type: cell-based; conditions: FIG. 3
Protocol: Evaluation of intracellular potassium levels All in vitro cell culture measurements were carried out using second passage human neonatal keratinocytes. We incubated cells in a low calcium medium (0.1 mM calcium, HuMedia-KG2, KURABO, Osaka, Japan) for at least 5 days and used the cells within 10 days. These keratinocytes were incubated until 100% of confluency, incubated 3 more days, and then incubated in a high calcium medium (1.8 mM calcium) for 24 hours to induce differentiation of the keratinocytes. We then added PBF1-AM (Molecular Probes, Eugene, Oreg.), final concentration 10 μM, and then incubated the cells for 4 hours at 37 C. The cultured keratinocytes were then washed in the medium described above. The cover slip was mounted on a fluorescence microscope (IX70, TS Olympus, Tokyo, Japan) equipped with a 75 W xenon-lamp and band-path filters of 340 nm. Measurements were carried out at the room temperature. Imaging data, recorded by a high-sensitive silicon intensifier target camera (C4742, Hamamatsu Photonics, Hamamatsu, Japan) were recorded by a fluorescence analyzing system (AQUACOSMOS/RATIO1, Hamamatsu Photonics, Hamamatsu, Japan).

[4] = test system: mouse epidermis (stratum granulosum lamellar bodies); experiment: Electron-microscopic study of lamellar body secretion after acetone treatment; type: in vivo; conditions: one hour after acetone treatment; electron microscopy; FIG. 4
Source text: The full thickness of skin samples for electron microscopy was minced into pieces (<0.5 mm^3) and fixed in modified Karnovsky's fixative overnight. They were then post-fixed in 2% aqueous osmium tetroxide or 0.2% ruthenium tetroxide as described previously (Denda et al. 1998, op. cit.). After fixation, all samples were dehydrated in graded ethanol solutions, and embedded in an Epon-epoxy mixture. Thin sections were stained with lead citrate and uranyl acetate and viewed by electron microscopy.

[5] = test system: hairless mice epidermis; experiment: Epidermal hyperplasia induced by barrier disruption under low humidity; type: in vivo, mouse
Protocol: Animals were kept separately in 7.2 liter cages in which the relative humidity was maintained at less than 10% with dry air as described previously (Denda et al. 1998a). The temperature was the same in all cases (22-25° C.), and fresh air was circulated 100 times per hour. Animals were kept out of the direct stream of air. During the experiments, the animal's behavior was not restricted. The level of NH3 was always below 1 ppm. Animals were first kept in a dry condition for 48 hours and then the skin on both flank sides was treated with acetone-soaked cotton balls, as described previously (Denda et al. 1998a). The procedure was terminated when TEWL reached 2.5-3.5 mg per cm^2 per h. Immediately after the barrier disruption, 100 ul of Diazoxide aqueous solution (100 uM) was applied on one side of the treated area. Water was applied on the other side. Then the animals were again kept in the dry condition for 48 hours. After the experiments, animals were euthanized with diethylether inhalation and skin samples were taken from the treated area. […] On each section, five areas were selected at random; the thickness of the epidermis was measured with an optical micrometer, and the mean value was calculated. […] On each section, five areas were selected at random from one section; the number of immunostained cells per 1 mm of epidermis was counted and the mean value was calculated. […]

SMILES	permeability barrier recovery after tape stripping (percent recovery of TEWL) [1]	lamellar body (LB) secretion at SG-SC interface [4]	change in intracellular potassium (K+) concentration ([3]; 10 μM final concentration)	further results
COc1ccc(Cl)cc1C(=O)NCCc1ccc(S(=O)(=O)NC(=O)NC2CCCCC2)cc1 [gilbenclamide, 5-chloro-N{2-[4[[[cycohexylamino]carbonyl]amino]sulfonyl]phenyl}-2-metyhoxybenzamide]	significantly delayed barrier recovery			
CC(C)[C@@H]1NC(=O)[C@H](C)OC(=O)[C@@H](C(C)C)NC(=O)[C@@H](C(C)C)OC(=O)[C@H](C(C)C)NC(=O)[C@H](C)OC(=O)[C@@H](C(C)C)NC(=O)[C@@H](C(C)C)OC(=O)[C@H](C(C)C)NC(=O)[C@H](C)OC(=O)[C@@H](C(C)C)NC(=O)[C@@H](C(C)C)OC1=O [valinomycin]		much more secreted material is evident at SG-SC interface; also recorded: accelerated the secretion of LB		permeability barrier recovery after tape stripping ([1]; topical potassium ionophore, FIG. 2A, n=4): accelerated barrier recovery; permeability barrier recovery after acetone treatment [2]: accelerated barrier recovery; change in intracellular potassium (K+) concentration ([3]; 1 μM final concentration): decreased intracellular K^+ concentrations; also recorded: decreased intracellular potassium concentrations
Cc1cc(N)c2ccccc2[n+]1CCCCCCCCCC[n+]1c(C)cc(N)c2ccccc21 [dequalinium, 1,1-(1,10-Decanedyl)bis(4-amino-2-methylquinolinium)dichloride]	significantly delayed barrier recovery			
CCn1c(=O)[nH]c2ccccc21 [1-EBIO, 1-Ethyl-2-benzoimidazollnone]	significantly accelerated barrier repair; also recorded: accelerated barrier recovery		decreased intracellular K^+ concentrations; also recorded: decreased intracellular potassium concentrations	
CC1=Nc2ccc(Cl)cc2S(=O)(=O)N1 [diazoxide, 7-chloro-3-methyl-2H-1,2,4-benzothiadiazine 1,1-dioxide]	significantly accelerated barrier repair; also recorded: accelerated barrier recovery	much more secreted material is evident at SG-SC interface; also recorded: accelerated the secretion of LB	decreased intracellular K^+ concentrations; also recorded: decreased intracellular potassium concentrations	epidermal hyperplasia induced by acetone treatment under low humidity ([5]; topical 100 uM aqueous solution, 48 hours dry condition, vs water, FIG. 5): prevented the epidermal hyperplasia; epidermal proliferation (BrdU positive cells), quantified ([5]; topical 100 uM, FIG. 6, 6 control mice and 5 treated, ANOVA probability 0.0372): Significant reductions of epidermal proliferation

— US20070270336A1, “Method for accelerating cutaneous barrier recovery” (Shiseido Company, Ltd., priority 2006, published 2007)
